Tested on: SEM cells
Experiment: cell viability relative to DMSO control; higher = less cytotoxic
Conditions: 48 h
Method in brief: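 In 1536-well plates, 5 μl of leukemia cells were seeded per well: 500 cells/well for NOMO1 or SEM and 1000 cells/well for P12-Ichikawa. Each line had first been adapted for at least four passages in each medium. Library compounds in DMSO were pin-dosed at 11 threefold concentrations between 47 μM and 0.79 nM, and CellTiter-Glo One luminescence was read after 48 h at 37°C. Viability is a per-plate percentage relative to DMSO wells, with cell-free wells as background.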

[1] = HPLM + 10% dialyzed FBS, 0.000781 µM
[2] = HPLM + 10% dialyzed FBS, 0.00234 µM
[3] = HPLM + 10% dialyzed FBS, 0.00702 µM
[4] = HPLM + 10% dialyzed FBS, 0.0211 µM
[5] = HPLM + 10% dialyzed FBS, 0.0632 µM
[6] = HPLM + 10% dialyzed FBS, 0.19 µM
[7] = HPLM + 10% dialyzed FBS, 0.569 µM
[8] = HPLM + 10% dialyzed FBS, 1.71 µM
[9] = HPLM + 10% dialyzed FBS, 5.12 µM
[10] = HPLM + 10% dialyzed FBS, 15.4 µM
[11] = HPLM + 10% dialyzed FBS, 46.1 µM
[12] = RPMI 5 mM glucose + 10% FBS, 0.000781 µM
[13] = RPMI 5 mM glucose + 10% FBS, 0.00234 µM
[14] = RPMI 5 mM glucose + 10% FBS, 0.00702 µM
[15] = RPMI 5 mM glucose + 10% FBS, 0.0211 µM
[16] = RPMI 5 mM glucose + 10% FBS, 0.0632 µM
[17] = RPMI 5 mM glucose + 10% FBS, 0.19 µM
[18] = RPMI 5 mM glucose + 10% FBS, 0.569 µM
[19] = RPMI 5 mM glucose + 10% FBS, 1.71 µM
[20] = RPMI 5 mM glucose + 10% FBS, 5.12 µM
[21] = RPMI 5 mM glucose + 10% FBS, 15.4 µM
[22] = RPMI 5 mM glucose + 10% FBS, 46.1 µM
[23] = RPMI 5 mM glucose + 10% dialyzed FBS, 0.000781 µM
[24] = RPMI 5 mM glucose + 10% dialyzed FBS, 0.00234 µM
[25] = RPMI 5 mM glucose + 10% dialyzed FBS, 0.00702 µM
[26] = RPMI 5 mM glucose + 10% dialyzed FBS, 0.0211 µM
[27] = RPMI 5 mM glucose + 10% dialyzed FBS, 0.0632 µM
[28] = RPMI 5 mM glucose + 10% dialyzed FBS, 0.19 µM
[29] = RPMI 5 mM glucose + 10% dialyzed FBS, 0.569 µM
[30] = RPMI 5 mM glucose + 10% dialyzed FBS, 1.71 µM
[31] = RPMI 5 mM glucose + 10% dialyzed FBS, 5.12 µM
[32] = RPMI 5 mM glucose + 10% dialyzed FBS, 15.4 µM
[33] = RPMI 5 mM glucose + 10% dialyzed FBS, 46.1 µM

SMILES | cell viability [1] [%] | cell viability [2] [%] | cell viability [3] [%] | cell viability [4] [%] | cell viability [5] [%] | cell viability [6] [%] | cell viability [7] [%] | cell viability [8] [%] | cell viability [9] [%] | cell viability [10] [%] | cell viability [11] [%] | cell viability [12] [%] | cell viability [13] [%] | cell viability [14] [%] | cell viability [15] [%] | cell viability [16] [%] | cell viability [17] [%] | cell viability [18] [%] | cell viability [19] [%] | cell viability [20] [%] | cell viability [21] [%] | cell viability [22] [%] | cell viability [23] [%] | cell viability [24] [%] | cell viability [25] [%] | cell viability [26] [%] | cell viability [27] [%] | cell viability [28] [%] | cell viability [29] [%] | cell viability [30] [%] | cell viability [31] [%] | cell viability [32] [%] | cell viability [33] [%]
Cc1c(C)n(Cc2ccc(-c3ccccc3C(=O)O)cc2)c2ccc(C(=O)N[C@@H](C)c3ccc([N+](=O)[O-])cc3)cc12 | 106 | 101 | 117 | 105 | 107 | 105 | 116 | 110 | 108 | 109 | 119 | 109 | 109 | 115 | 112 | 118 | 119 | 118 | 124 | 120 | 121 | 110 | 99.2 | 117 | 115 | 112 | 116 | 127 | 120 | 117 | 115 | 115 | 106
CC(C)(C)OC(=O)N[C@H]1CCCCC/C=C\[C@@H]2C[C@@]2(C(=O)N[S+](=O)([O-])C2CC2)NC(=O)[C@@H]2C[C@@H](OC(=O)N3Cc4cccc(F)c4C3)CN2C1=O | 71.4 | 83.9 | 83.5 | 75.7 | 97.3 | 89 | 92.1 | 79.8 | 84 | 86.6 | 80.2 | 96.1 | 99.7 | 84.5 | 73.4 | 102 | 88.9 | 101 | 103 | 93.4 | 90.2 | 85.4 | 85.2 | 91.9 | 93.4 | 105 | 94.9 | 98.5 | 121 | 115 | 93 | 91.6 | 81.3
CC1(C)O[C@@H]2C[C@H]3[C@@H]4C[C@H](F)C5=CC(=O)C=C[C@]5(C)[C@@]4(F)[C@@H](O)C[C@]3(C)[C@]2(C(=O)CO)O1 | 97.9 | 98.7 | 91.3 | 83.5 | 58.3 | 51.5 | 41 | 44.9 | 43.8 | 54.4 | 45.4 | 98.3 | 120 | 87.1 | 82.6 | 65.5 | 63.2 | 63.4 | 49.5 | 51.1 | 56.1 | 53.7 | 116 | 109 | 98.4 | 91.3 | 59.6 | 55.2 | 39.1 | 51.7 | 47.8 | 44.6 | 49.2
CC[S+](=O)([O-])c1cccc(-c2cc(C(=O)NC3CCN(C)CC3)c(C)c3[nH]c4ncc(C)cc4c23)c1 | 109 | 103 | 130 | 110 | 124 | 101 | 52.3 | 38.6 | 30.2 | 18.8 | 8.97 | 114 | 120 | 140 | 120 | 138 | 83.2 | 46.6 | 27.7 | 20.6 | 12.9 | 5.92 | 99.2 | 92.5 | 135 | 127 | 118 | 82.6 | 46 | 31.9 | 23.8 | 20.6 | 6.33
COc1ccc([C@@H]2CC(=O)c3c(O)cc(O[C@@H]4O[C@H](CO[C@@H]5O[C@@H](C)[C@H](O)[C@@H](O)[C@H]5O)[C@@H](O)[C@H](O)[C@H]4O)cc3O2)cc1O | 98.6 | 101 | 119 | 114 | 109 | 120 | 103 | 102 | 112 | 107 | 74 | 117 | 106 | 107 | 102 | 111 | 106 | 115 | 116 | 103 | 111 | 52.7 | 110 | 138 | 108 | 115 | 126 | 114 | 131 | 120 | 119 | 127 | 44
CCN1CCN(CC1)CC(=O)NC2=CC=C(C3=C2C4=C(S3)C=CC=C4)C5=C6O\C(=C/C(=O)C6=CC=C5)N7CCOCC7 | 107 | 98.2 | 109 | 106 | 111 | 93.4 | 88.4 | 30 | 18 | 8.23 | 30.3 | 117 | 108 | 107 | 95.2 | 124 | 91.7 | 82.3 | 55.6 | 14.4 | 8.04 | 27.8 | 137 | 122 | 123 | 116 | 105 | 110 | 88.6 | 71.3 | 24 | 9.66 | 27.2
CC(C)c1nc(CN(C)C(=O)N[C@H](C(=O)N[C@@H](Cc2ccccc2)C[C@H](O)[C@H](Cc2ccccc2)NC(=O)OCc2cncs2)C(C)C)cs1 | 84.8 | 90.5 | 101 | 87.5 | 96.2 | 91.6 | 85 | 85.1 | 81.5 | 62.6 | 74.4 | 94.9 | 103 | 110 | 103 | 90.7 | 89.7 | 84.8 | 88.8 | 87.3 | 80.1 | 87.5 | 104 | 113 | 98.4 | 85 | 106 | 86.1 | 94.8 | 105 | 92.4 | 88.1 | 99.8

Source: the supplement of paper PMC11451515
